Measured values as given in patent publication US11053251B2, “GPR35 modulators” (Prometheus Biosciences, Inc., priority 2019, dated 2021).

Assays:
Human GPR35 [1] = target: Human GPR35 (Homo sapiens, UniProt Q9HC97); assay: Beta-Arrestin Assay (Tango U2OS cells, LiveBLAzer-FRET B/G); format: cell-based; conditions: Human GPR35 expressing Tango U2OS cells, 5 hours treatment
Protocol: Human GPR35 expressing Tango U2OS cells were plated in 384-well format in clear bottom plates at a cell density of 10,000 cells/well and allowed to grow overnight. The next day, cells were treated with serially diluted test compounds for 5 hours. LiveBLAzer-FRET B/G (CCF4-AM) detection reagents were then added and cells were allowed to incubate for 2 hours before reading plates on a BioTek Cytation 5 plate reader. Zaprinast was used as a positive control for dose-response curves. In order to determine EC50 values, data were fit to a four-parameter dose-response curve.

Human GPR35 [2] = target: Human GPR35 (Homo sapiens, UniProt Q9HC97, S294R); assay: Alternative Beta-Arrestin Assay (JumpIn 294R Tango U2OS cells, LiveBLAzer-FRET B/G); format: cell-based; conditions: for EC50: Human GPR35 expressing JumpIn 294R Tango U2OS cells, 5 hours treatment; for % inhibition at 50 μM: Table 2
Method in brief: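 U2OS Tango cells expressing human GPR35 S294R, plated overnight, exposed to serially diluted compounds for 5 hours. β-lactamase reporter read with LiveBLAzer-FRET B/G (CCF4-AM) after 2 h; EC50 from four-parameter fit, zaprinast as positive control.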

Chain of Human GPR35 (Homo sapiens, UniProt Q9HC97, S294R) (Q9HC97 whole entry S294R): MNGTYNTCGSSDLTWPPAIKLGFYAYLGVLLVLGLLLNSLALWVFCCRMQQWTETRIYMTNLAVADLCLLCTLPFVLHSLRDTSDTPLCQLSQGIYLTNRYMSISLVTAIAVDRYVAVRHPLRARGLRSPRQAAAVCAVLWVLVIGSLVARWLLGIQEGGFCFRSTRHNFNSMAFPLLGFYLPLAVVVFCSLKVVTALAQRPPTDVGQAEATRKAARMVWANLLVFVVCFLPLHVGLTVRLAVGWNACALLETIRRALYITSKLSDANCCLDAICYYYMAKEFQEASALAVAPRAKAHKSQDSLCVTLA
Chain of Human GPR35 (Homo sapiens, UniProt Q9HC97) (Q9HC97 whole entry): as the sequence (Q9HC97 whole entry S294R) above, with R294S counted along it

| EC50 (Human GPR35 [1]) [µM] | EC50 (Human GPR35 [2]) [µM] | % inhibition at 50 μM (Human GPR35 [2]) [% inhibition at] | SMILES |
| --- | --- | --- | --- |
| ≤ 10 | ≤ 10 | – | CCOc1cc(-c2ccc(C)c(C(=O)O)c2)ccc1-c1nc2[nH]nnc2c(=O)[nH]1 [Compound 155, 3′-ethoxy-4-methyl-4′-(7-oxo-6,7-dihydro-3H-[1,2,3]triazolo[4,5-d]pyrimidin-5-yl)-[1,1′-biphenyl]-3-carboxylic acid] |
| ≤ 10 | ≤ 10 | – | CCOc1cc(-c2ccc(O)c(C(=O)O)c2)ccc1-c1nc2[nH]nnc2c(=O)[nH]1 [Compound 179, 3′-ethoxy-4-hydroxy-4′-(7-oxo-6,7-dihydro-3H-[1,2,3]triazolo[4,5-d]pyrimidin-5-yl)-[1,1′-biphenyl]-3-carboxylic acid] |
| > 10 | 10 to 50 | – | CCOc1cc(C(=O)N2CCCCC2C(=O)O)ccc1-c1nc2[nH]nnc2c(=O)[nH]1 (stereo not drawn) [Compound 171, 1-(3-ethoxy-4-(7-oxo-6,7-dihydro-3H-[1,2,3]triazolo[4,5-d]pyrimidin-5-yl)benzoyl)piperidine-2-carboxylic acid] |
| ≤ 10 | ≤ 10 | – | CCOc1cc(-c2ncccn2)ccc1-c1nc2[nH]nnc2c(=O)[nH]1 [Compound 103, 5-(2-Ethoxy-4-(pyrimidin-2-yl)phenyl)-3,6-dihydro-7H-[1,2,3]triazolo[4,5-d]pyrimidin-7-one] |
| ≤ 10 | ≤ 10 | – | CCOc1cc(-c2ccncc2)ccc1-c1nc2[nH]nnc2c(=O)[nH]1 [Compound 104, 5-(2-Ethoxy-4-(pyridin-4-yl)phenyl)-3,6-dihydro-7H-[1,2,3]triazolo[4,5-d]pyrimidin-7-one] |
| ≤ 10 | ≤ 10 | – | CCOc1cc(C(=O)N[C@H](CCC(=O)O)C(=O)O)ccc1-c1nc2[nH]nnc2c(=O)[nH]1 [Compound 169, (3-ethoxy-4-(7-oxo-6,7-dihydro-3H-[1,2,3]triazolo[4,5-d]pyrimidin-5-yl)benzoyl)-D-glutamic acid] |
| ≤ 10 | ≤ 10 | – | CCOc1cc(C(=O)N2CC[C@@H](C(=O)O)C2)ccc1-c1nc2[nH]nnc2c(=O)[nH]1 [Compound 161, (R)-1-(3-ethoxy-4-(7-oxo-6,7-dihydro-3H-[1,2,3]triazolo[4,5-d]pyrimidin-5-yl)benzoyl)pyrrolidine-3-carboxylic acid] |
| ≤ 10 | ≤ 10 | – | CCOc1cc(-c2noc(=O)[nH]2)ccc1-c1nc2[nH]nnc2c(=O)[nH]1 [Compound 150, 3-(3-ethoxy-4-(7-oxo-6,7-dihydro-3H-[1,2,3]triazolo[4,5-d]pyrimidin-5-yl)phenyl)-1,2,4-oxadiazol-5(4H)-one] |
| ≤ 10 | 10 to 50 | – | CCOc1cc(N2CCC[C@H]2C(=O)O)ccc1-c1nc2[nH]nnc2c(=O)[nH]1 [Compound 162, (3-ethoxy-4-(7-oxo-6,7-dihydro-3H-[1,2,3]triazolo[4,5-d]pyrimidin-5-yl)phenyl)-L-proline] |
| ≤ 10 | ≤ 10 | – | CCOc1cc(CC(=O)O)ccc1-c1nc2[nH]nnc2c(=O)[nH]1 [Compound 146, 2-(3-ethoxy-4-(7-oxo-6,7-dihydro-3H-[1,2,3]triazolo[4,5-d]pyrimidin-5-yl)phenyl)acetic acid] |
| ≤ 10 | 10 to 50 | – | CCOc1cc(NC(C)=O)ccc1-c1nc2[nH]nnc2c(=O)[nH]1 [Compound 138, N-(3-ethoxy-4-(7-oxo-6,7-dihydro-3H-[1,2,3]triazolo[4,5-d]pyrimidin-5-yl)phenyl)acetamide] |
| ≤ 10 | – | 66 | CCOc1cc(N2CCCC2=O)ccc1-c1nc2[nH]nnc2c(=O)[nH]1 [Compound 165, 5-(2-ethoxy-4-(2-oxopyrrolidin-1-yl)phenyl)-3,6-dihydro-7H-[1,2,3]triazolo[4,5-d]pyrimidin-7-one] |
| ≤ 10 | ≤ 10 | – | CCOc1cc(-c2ccc(OC)c(C(=O)O)c2)ccc1-c1nc2[nH]nnc2c(=O)[nH]1 [Compound 182, 3′-ethoxy-4-methoxy-4′-(7-oxo-6,7-dihydro-3H-[1,2,3]triazolo[4,5-d]pyrimidin-5-yl)-[1,1′-biphenyl]-3-carboxylic acid] |
| ≤ 10 | ≤ 10 | – | CCOc1cc(-c2cccc(-c3nnn[nH]3)c2)ccc1-c1nc2[nH]nnc2c(=O)[nH]1 [Compound 153, 5-(3-ethoxy-3′-(1H-tetrazol-5-yl)-[1,1′-biphenyl]-4-yl)-3,6-dihydro-7H-[1,2,3]triazolo[4,5-d]pyrimidin-7-one] |
| ≤ 10 | ≤ 10 | – | CCOc1cc(N)ccc1-c1nc2[nH]nnc2c(=O)[nH]1 [Compound 137, 5-(4-amino-2-ethoxyphenyl)-3,6-dihydro-7H-[1,2,3]triazolo[4,5-d]pyrimidin-7-one] |
| ≤ 10 | ≤ 10 | – | CCOc1cc(-c2cccc(C(=O)OC)c2)ccc1-c1nc2[nH]nnc2c(=O)[nH]1 [Compound 107, Methyl 3′-ethoxy-4′-(7-oxo-6,7-dihydro-3H-[1,2,3]triazolo[4,5-d]pyrimidin-5-yl)-[1,1′-biphenyl]-3-carboxylate] |
| ≤ 10 | ≤ 10 | – | CCOc1cc(-c2cc(C(=O)O)cc(C(=O)O)c2)ccc1-c1nc2[nH]nnc2c(=O)[nH]1 [Compound 157, 3′-ethoxy-4′-(7-oxo-6,7-dihydro-3H-[1,2,3]triazolo[4,5-d]pyrimidin-5-yl)-[1,1′-biphenyl]-3,5-dicarboxylic acid] |
| ≤ 10 | ≤ 10 | – | CCOc1cc(-c2cccc(OCC(=O)O)c2)ccc1-c1nc2[nH]nnc2c(=O)[nH]1 [Compound 121, 2-((3′-Ethoxy-4′-(7-oxo-6,7-dihydro-3H-[1,2,3]triazolo[4,5-d]pyrimidin-5-yl)-[1,1′-biphenyl]-3-yl)oxy)acetic acid] |
| ≤ 10 | ≤ 10 | – | CCCOc1cc(-c2cccc(C(=O)O)c2)ccc1-c1nc2[nH]nnc2c(=O)[nH]1 [Compound 128, 4′-(7-Oxo-6,7-dihydro-3H-[1,2,3]triazolo[4,5-d]pyrimidin-5-yl)-3′-propoxy-[1,1′-biphenyl]-3-carboxylic acid] |
| > 10 | – | 35 | CCOc1cc(C(=O)N(C)c2ccccc2)ccc1-c1nc2[nH]nnc2c(=O)[nH]1 [Compound 139, 3-ethoxy-N-methyl-4-(7-oxo-6,7-dihydro-3H-[1,2,3]triazolo[4,5-d]pyrimidin-5-yl)-N-phenylbenzamide] |
| ≤ 10 | ≤ 10 | – | CCOc1cc(-c2cccc(C(=O)O)c2)ccc1-c1nc2[nH]nnc2c(=O)[nH]1 [Compound 110, 3′-Ethoxy-4′-(7-oxo-6,7-dihydro-3H-[1,2,3]triazolo[4,5-d]pyrimidin-5-yl)-[1,1′-biphenyl]-3-carboxylic acid] |
| ≤ 10 | ≤ 10 | – | CCOc1cc(-c2ccccc2)ccc1-c1nc2[nH]nnc2c(=O)[nH]1 [Compound 101, 5-(3-Ethoxy-[1,1′-biphenyl]-4-yl)-3,6-dihydro-7H-[1,2,3]triazolo[4,5-d]pyrimidin-7-one] |
| > 10 | – | 48 | CCOc1cc(C(=O)N2CCC[C@H]2C(=O)O)ccc1-c1nc2[nH]nnc2c(=O)[nH]1 [Compound 158, (3-ethoxy-4-(7-oxo-6,7-dihydro-3H-[1,2,3]triazolo[4,5-d]pyrimidin-5-yl)benzoyl)-L-proline] |
| ≤ 10 | ≤ 10 | – | CCOc1cc(-c2cc[nH]n2)ccc1-c1nc2nn[nH]c2c(=O)[nH]1 [Compound 131, 5-(2-Ethoxy-4-(1H-pyrazol-3-yl)phenyl)-1,6-dihydro-7H-[1,2,3]triazolo[4,5-d]pyrimidin-7-one] |
